target: HPK1 (Homo sapiens, UniProt Q92918); assay: HPK1 Lantha Binding Assay ("Lanth"); details: Table B1-1, read-out: HPK1 Ki (μM) (Lanth)
Outline: (§1)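 Compounds in an 11-point 5-fold series were preincubated 1 h at 23 C with 2 nM kinase plus 2 nM Eu-anti-GST antibody. Then 15 nM Tracer222 was added for another hour, and time-resolved FRET was read at 665/615 nm. Ki values come from a Morrison tight-binding model that uses the tracer Kd.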

Chain of HPK1 (Homo sapiens, UniProt Q92918) (Q92918 whole entry, looked up): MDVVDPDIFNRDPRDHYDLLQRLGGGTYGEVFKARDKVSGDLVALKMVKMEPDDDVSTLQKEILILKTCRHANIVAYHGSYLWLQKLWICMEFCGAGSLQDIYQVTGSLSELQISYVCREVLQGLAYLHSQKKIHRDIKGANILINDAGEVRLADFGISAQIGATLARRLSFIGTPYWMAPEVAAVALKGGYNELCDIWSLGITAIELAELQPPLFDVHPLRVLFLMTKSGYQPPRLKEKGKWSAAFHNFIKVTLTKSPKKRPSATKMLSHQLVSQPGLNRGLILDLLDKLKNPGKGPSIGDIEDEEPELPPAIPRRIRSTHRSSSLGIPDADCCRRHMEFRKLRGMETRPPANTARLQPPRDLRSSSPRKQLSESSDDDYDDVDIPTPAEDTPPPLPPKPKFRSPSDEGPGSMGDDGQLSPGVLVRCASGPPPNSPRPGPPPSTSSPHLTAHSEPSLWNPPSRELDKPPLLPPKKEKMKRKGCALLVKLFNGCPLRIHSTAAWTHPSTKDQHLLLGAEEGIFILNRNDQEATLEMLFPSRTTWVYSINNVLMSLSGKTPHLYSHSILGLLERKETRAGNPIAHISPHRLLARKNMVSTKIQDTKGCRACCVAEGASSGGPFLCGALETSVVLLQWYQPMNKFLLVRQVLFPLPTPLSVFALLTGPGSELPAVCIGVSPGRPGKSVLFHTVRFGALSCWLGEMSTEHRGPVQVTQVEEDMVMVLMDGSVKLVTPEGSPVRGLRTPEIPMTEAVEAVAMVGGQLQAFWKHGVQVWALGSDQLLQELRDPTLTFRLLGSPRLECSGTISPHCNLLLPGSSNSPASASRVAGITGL

| SMILES | Ki |
| --- | --- |
| Cc1c(-c2cc3cc(NC(=O)[C@@H]4C[C@@H]4F)ncc3c(N)n2)cnn1C (racemic) [Compound 2, (±)-cis-N-(8-amino-6-(1,5-dimethyl-1H-pyrazol-4-yl)-2,7-naphthyridin-3-yl)-2-fluorocyclopropanecarboxamide] | 1.56 nM |
| Cc1nn(C)c(C)c1-c1cc2cc(NC(=O)[C@@H]3C[C@@H]3F)ncc2c(N)n1 (racemic) [Compound 3, (±)-cis-N-(8-amino-6-(1,3,5-trimethyl-1H-pyrazol-4-yl)-2,7-naphthyridin-3-yl)-2-fluorocyclopropanecarboxamide] | 5.14 nM |
| Cn1cc(-c2cc3cc(NC(=O)[C@H]4C[C@@H]4F)ncc3c(N)n2)cn1 (racemic) [Compound 8, trans-N-(8-amino-6-(1-methyl-1H-pyrazol-4-yl)-2,7-naphthyridin-3-yl)-2-fluorocyclopropanecarboxamide] | 1.64 nM |
| Cc1cc(N)ncc1-c1cc2cc(NC(=O)[C@@H]3C[C@@H]3F)ncc2c(N)n1 (racemic) [Compound 16, (±)-cis-N-(8-amino-6-(6-amino-4-methylpyridin-3-yl)-2,7-naphthyridin-3-yl)-2-fluorocyclopropanecarboxamide] | 7.21 nM |
| N#C[C@@H]1C[C@@H]1C(=O)Nc1cc2cc(-c3cncc4[nH]ccc34)nc(N)c2cn1 (racemic) [Compound 21, (±)-cis-N-(8-amino-6-(1H-pyrrolo[2,3-c]pyridin-4-yl)-2,7-naphthyridin-3-yl)-2-cyanocyclopropanecarboxamide] | 2.76 nM |
| CCc1ccncc1-c1cc2cc(NC(=O)NC(C)C(N)=O)ncc2c(N)n1 (racemic) [Compound 34, 2-[[8-amino-6-(4-ethyl-3-pyridyl)-2,7-naphthyridin-3-yl]carbamoylamino]propanamide] | 34 nM |
| Cc1ccncc1-c1cc2cc(NC(=O)C(C)C#N)ncc2c(N)n1 (racemic) [Compound 38, N-(8-amino-6-(4-methylpyridin-3-yl)-2,7-naphthyridin-3-yl)-2-cyanopropanamide] | 48.4 nM |
| Cc1ccncc1-c1cc2cc(NC(=O)[C@@H]3C[C@H]3C#N)ncc2c(N)n1 (racemic) [Compound 43, trans-N-(8-amino-6-(4-methylpyridin-3-yl)-2,7-naphthyridin-3-yl)-2-cyanocyclopropanecarboxamide] | 2.05 nM |
| Nc1nc(-c2cnccc2C2CC2)cc2cc(NC(=O)[C@@H]3C[C@@H]3F)ncc12 (racemic) [Compound 46, (±)-cis-N-(8-amino-6-(4-cyclopropylpyridin-3-yl)-2,7-naphthyridin-3-yl)-2-fluorocyclopropanecarboxamide] | 1.52 nM |
| Cc1cc(C(N)=O)ccc1-c1cc2cc(NC(=O)[C@@H]3C[C@@H]3F)ncc2c(N)n1 (racemic) [Compound 48, (±)-4-(1-amino-6-((cis)-2-fluorocyclopropanecarboxamido)-2,7-naphthyridin-3-yl)-3-methylbenzamide] | 10.3 nM |
| CNC(=O)c1ccc(-c2cc3cc(NC(=O)[C@@H]4C[C@@H]4F)ncc3c(N)n2)c(C)c1 (racemic) [Compound 49, 4-(1-amino-6-((cis)-2-fluorocyclopropanecarboxamido)-2,7-naphthyridin-3-yl)-N,3-dimethylbenzamide] | 6.82 nM |
| CC(C)c1ccncc1-c1cc2cc(NC(=O)[C@H]3C[C@@H]3C#N)ncc2c(N)n1 (racemic) [Compound 50, trans-N-(8-amino-6-(4-isopropylpyridin-3-yl)-2,7-naphthyridin-3-yl)-2-cyanocyclopropanecarboxamide] | 5.9 nM |
| Cc1ccncc1-c1cc2cc(NC(=O)[C@@H]3C[C@H]3F)ncc2c(N)n1 (racemic) [Compound 51, (±)-trans-N-(8-amino-6-(4-methylpyridin-3-yl)-2,7-naphthyridin-3-yl)-2-fluorocyclopropanecarboxamide] | 1.3 nM |
| Cc1c(-c2cc3cc(NC(=O)[C@@H]4C[C@@H]4F)ncc3c(N)n2)cnc2nc[nH]c12 (racemic) [Compound 52, (±)-cis-N-(8-amino-6-(7-methyl-1H-imidazo [4,5-b]pyridin-6-yl)-2,7-naphthyridin-3-yl)-2-fluorocyclopropanecarboxamide] | 2.98 nM |
| CCc1ccncc1-c1cc2cc(NC(=O)[C@H]3C[C@@H]3COC)ncc2c(N)n1 (racemic) [Compound 53, (±)-trans-N-(8-amino-6-(4-ethylpyridin-3-yl)-2,7-naphthyridin-3-yl)-2-(methoxymethyl) cyclopropane carboxamide] | 0.736 nM |
| Nc1nc(N2CCCC2CCO)cc2cc(NC(=O)[C@@H]3C[C@@H]3F)ncc12 (mixture of isomers) [Compound 54, (±)-cis-N-(8-amino-6-(2-(2-hydroxyethyl)pyrrolidin-1-yl)-2,7-naphthyridin-3-yl)-2-fluorocyclopropanecarboxamide] | 48.9 nM |

| SMILES | Ki |
| --- | --- |
| COc1cc(-c2cc3cc(NC(=O)[C@@H]4C[C@@H]4F)ncc3c(N)n2)c(C)cn1 (racemic) [Compound 55, cis-N-(8-amino-6-(2-methoxy-5-methylpyridin-4-yl)-2,7-naphthyridin-3-yl)-2-fluorocyclopropanecarboxamide] | 6.4 nM |
| CCc1ccncc1-c1cc2cc(Nc3cc(C(O)CC)ccn3)ncc2c(N)n1 (racemic) [Compound 82, (±)-1-{2-[8-Amino-6-(4-ethylpyridin-3-yl)-[2,7]naphthyridin-3-ylamino]-pyridin-4-yl}propan-1-ol] | 0.4 nM |
| N#C[C@@H]1C[C@H]1C(=O)Nc1cc2cc(-c3cncc4c3CCCC4O)nc(N)c2cn1 (mixture of isomers) [Compound 99, (±)-trans-N-(8-amino-6-(8-hydroxy-5,6,7,8-tetrahydroisoquinolin-4-yl)-2,7-naphthyridin-3-yl)-2-cyanocyclopropane-1-carboxamide] | 70.7 nM |
| Nc1nc(-c2cccnc2)cc2cc(NC(=O)[C@@H]3C[C@@H]3F)ncc12 (racemic) [Compound 106, (±)-cis-N-(8-amino-6-(pyridin-3-yl)-2,7-naphthyridin-3-yl)-2-fluorocyclopropane-1-carboxamide] | 4.97 nM |
| N#C[C@@H]1C[C@H]1C(=O)Nc1cc2cc(-c3cn[nH]c3)nc(N)c2cn1 (racemic) [Compound 112, (±)-trans-N-(8-amino-6-(1H-pyrazol-4-yl)-2,7-naphthyridin-3-yl)-2-cyanocyclopropane-1-carboxamide] | 1.87 nM |
| CC(C)c1[nH]ncc1-c1cc2cc(NC(=O)[C@@H]3C[C@H]3C#N)ncc2c(N)n1 (racemic) [Compound 114, (±)-trans-N-(8-amino-6-(5-isopropyl-1H-pyrazol-4-yl)-2,7-naphthyridin-3-yl)-2-cyanocyclopropane-1-carboxamide] | 2.24 nM |
| Cc1ccncc1-c1cc2cc(NC(=O)[C@@H]3C[C@H]3C)ncc2c(N)n1 (racemic) [Compound 118, (±)-trans-N-(8-amino-6-(4-methylpyridin-3-yl)-2,7-naphthyridin-3-yl)-2-methylcyclopropane-1-carboxamide] | 0.476 nM |
| Cc1ccncc1-c1cc2cc(NC3CCNC3)ncc2c(N)n1 (racemic) [Compound 120, (±)-3-(4-methyl-3-pyridyl)-N6-pyrrolidin-3-yl-2,7-naphthyridine-1,6-diamine] | 2400 nM |
| Cc1ccncc1-c1cc2cc(NC(=O)[C@@H]3C[C@H]3c3cn[nH]c3)ncc2c(N)n1 (racemic) [Compound 122, (±)-trans-N-[8-amino-6-(4-methyl-3-pyridyl)-2,7-naphthyridin-3-yl]-2-(1H-pyrazol-4-yl)cyclopropanecarboxamide] | 0.0629 nM |
| Cc1ccncc1-c1cc2cc(NC(=O)[C@H]3C[C@]34CCNC4)ncc2c(N)n1 (racemic) [Compound 126, (±)-cis-N-(8-amino-6-(4-methylpyridin-3-yl)-2,7-naphthyridin-3-yl)-5-azaspiro[2.4]heptane-1-carboxamide] | 7 nM |
| COCCN1CC[C@]2(C[C@H]2C(=O)Nc2cc3cc(-c4cnccc4C)nc(N)c3cn2)C1 (racemic) [Compound 127, (±)-trans-N-(8-amino-6-(4-methylpyridin-3-yl)-2,7-naphthyridin-3-yl)-5-(2-methoxyethyl)-5-azaspiro[2.4]heptane-1-carboxamide] | 5.3 nM |
| COCCN1CC[C@]2(C[C@@H]2C(=O)Nc2cc3cc(-c4cnccc4C)nc(N)c3cn2)C1 (racemic) [Compound 128, (±)-cis-N-(8-amino-6-(4-methylpyridin-3-yl)-2,7-naphthyridin-3-yl)-5-(2-methoxyethyl)-5-azaspiro[2.4]heptane-1-carboxamide] | 2.5 nM |
| Cc1ccncc1-c1cc2cc(NC(=O)[C@@H]3C[C@H]3c3cccnc3)ncc2c(N)n1 (racemic) [Compound 131, (±)-trans-N-[8-amino-6-(4-methyl-3-pyridyl)-2,7-naphthyridin-3-yl]-2-(3-pyridyl)cyclopropane carboxamide] | 0.31 nM |
| N#C[C@H]1C[C@@H]1C(=O)Nc1cc2cc(-c3cn[nH]c3C(F)(F)F)nc(N)c2cn1 (racemic) [Compound 132, (±)-trans-N-[8-amino-6-[5-(trifluoromethyl)-1H-pyrazol-4-yl]-2,7-naphthyridin-3-yl]-2-cyano-cyclopropanecarboxamide] | 6.5 nM |
| Cc1cc2[nH]c(=O)oc2cc1-c1cc2cc(NC(=O)C3C[C@H]3C#N)ncc2c(N)n1 (mixture of isomers) [Compound 135, (±)-((trans-)-N-(8-amino-6-(5-methyl-2-oxo-2,3-dihydrobenzo[d]oxazol-6-yl)-2,7-naphthyridin-3-yl)-2-cyanocyclopropanecarboxamide] | 0.25 nM |

target: HPK1; assay: HPK1 Lantha Binding Assay ("Lanth"); details: Table B1-2, read-out: HPK1 Ki, L = Lanth
Outline: as §1

| SMILES | Ki |
| --- | --- |
| COCc1cccc(C)c1-c1cc2cc(NC(=O)[C@@H]3C[C@H]3c3cnn(C)c3)ncc2c(N)n1 [Compound 428, (1R,2R)-N-(8-amino-6-(2-(methoxymethyl)-6-methylphenyl)-2,7-naphthyridin-3-yl)-2-(1-methyl-1H-pyrazol-4-yl)cyclopropane-1-carboxamide] | 8 nM |
